Experimental data as given in ChEMBL document CHEMBL3044996, “Diatomaceous earths enhance the insecticidal effect of bitterbarkomycin against stored-grain insects” (2009).
Activity calls are given as the source filed them. No cut-off for these calls is given here.

Experiments:
Tribolium castaneum [1] = assay: Insecticidal activity against adult Tribolium castaneum (red flour beetle) assessed as mortality at 0.075 ppm exposed for 14 days on wheat; type: functional
Cryptolestes ferrugineus [2] = assay: Insecticidal activity against adult Cryptolestes ferrugineus (rusty grain beetle) assessed as mortality at 0.0375 ppm exposed for 7 days on wheat; type: functional; settings: 168 h
Sitophilus zeamais [3] = assay: Insecticidal activity against adult Sitophilus zeamais assessed as mortality at 0.0625 ppm exposed for 14 days on wheat; type: functional
Cryptolestes ferrugineus [4] = assay: Insecticidal activity against adult Cryptolestes ferrugineus (rusty grain beetle) assessed as mortality at 0.0375 ppm exposed for 14 days on wheat; type: functional; settings: 336 h
Sitophilus zeamais [5] = assay: Insecticidal activity against adult Sitophilus zeamais assessed as mortality at 0.075 ppm exposed for 14 days on wheat; type: functional
Sitophilus zeamais [6] = assay: Insecticidal activity against adult Sitophilus zeamais assessed as mortality at 0.0875 ppm exposed for 5 days on wheat; type: functional
Tribolium castaneum [7] = assay: Insecticidal activity against adult Tribolium castaneum (red flour beetle) assessed as mortality at 0.0875 ppm exposed for 14 days on wheat; type: functional
Cryptolestes ferrugineus [8] = assay: Insecticidal activity against adult Cryptolestes ferrugineus (rusty grain beetle) assessed as mortality at 0.05 ppm exposed for 7 days on wheat; type: functional; settings: 168 h
Cryptolestes ferrugineus [9] = assay: Insecticidal activity against adult Cryptolestes ferrugineus (rusty grain beetle) assessed as mortality at 0.0625 ppm exposed for 14 days on wheat; type: functional; settings: 336 h
Cryptolestes ferrugineus [10] = assay: Insecticidal activity against adult Cryptolestes ferrugineus (rusty grain beetle) assessed as mortality at 0.075 ppm exposed for 7 days on wheat; type: functional; settings: 168 h
Cryptolestes ferrugineus [11] = assay: Insecticidal activity against adult Cryptolestes ferrugineus (rusty grain beetle) assessed as mortality at 0.0875 ppm exposed for 14 days on wheat; type: functional; settings: 336 h
Cryptolestes ferrugineus [12] = assay: Insecticidal activity against adult Cryptolestes ferrugineus (rusty grain beetle) assessed as mortality at 0.0875 ppm exposed for 5 days on wheat; type: functional; settings: 120 h
Cryptolestes ferrugineus [13] = assay: Insecticidal activity against adult Cryptolestes ferrugineus (rusty grain beetle) assessed as mortality at 0.0375 ppm exposed for 5 days on wheat; type: functional; settings: 120 h
Sitophilus zeamais [14] = assay: Insecticidal activity against adult Sitophilus zeamais assessed as mortality at 0.075 ppm exposed for 7 days on wheat; type: functional
Sitophilus zeamais [15] = assay: Reduction of progeny production in adult Sitophilus zeamais at 0.0875 to 0.0375 to ppm exposed on wheat; type: functional, organism-based
Tribolium castaneum [16] = assay: Insecticidal activity against adult Tribolium castaneum (red flour beetle) assessed as mortality at 0.0375 ppm exposed for 7 days on wheat; type: functional
Tribolium castaneum [17] = assay: Insecticidal activity against adult Tribolium castaneum (red flour beetle) assessed as mortality at 0.075 ppm exposed for 5 days on wheat; type: functional
Cryptolestes ferrugineus [18] = assay: Insecticidal activity against adult Cryptolestes ferrugineus (rusty grain beetle) assessed as mortality at 0.075 ppm exposed for 5 days on wheat; type: functional; settings: 120 h
Tribolium castaneum [19] = assay: Insecticidal activity against adult Tribolium castaneum (red flour beetle) assessed as mortality at 0.0875 ppm exposed for 7 days on wheat; type: functional
Sitophilus zeamais [20] = assay: Insecticidal activity against adult Sitophilus zeamais assessed as mortality at 0.05 ppm exposed for 14 days on wheat; type: functional
Sitophilus zeamais [21] = assay: Insecticidal activity against adult Sitophilus zeamais assessed as mortality at 0.0375 ppm exposed for 7 days on wheat; type: functional
Cryptolestes ferrugineus [22] = assay: Insecticidal activity against adult Cryptolestes ferrugineus (rusty grain beetle) assessed as mortality at 0.0625 ppm exposed for 5 days on wheat; type: functional; settings: 120 h
Tribolium castaneum [23] = assay: Insecticidal activity against adult Tribolium castaneum (red flour beetle) assessed as mortality at 0.0625 ppm exposed for 7 days on wheat; type: functional
Tribolium castaneum [24] = assay: Reduction of progeny production in adult Tribolium castaneum (red flour beetle) at 0.0875 to 0.0375 to ppm exposed on wheat; type: functional, organism-based
Cryptolestes ferrugineus [25] = assay: Reduction of progeny production in adult Cryptolestes ferrugineus (rusty grain beetle) at 0.0875 to 0.0375 to ppm exposed on wheat; type: functional, organism-based
Cryptolestes ferrugineus [26] = assay: Insecticidal activity against adult Cryptolestes ferrugineus (rusty grain beetle) assessed as mortality at 0.05 ppm exposed for 14 days on wheat; type: functional; settings: 336 h
Sitophilus zeamais [27] = assay: Insecticidal activity against adult Sitophilus zeamais assessed as mortality at 0.075 ppm exposed for 5 days on wheat; type: functional
Sitophilus zeamais [28] = assay: Insecticidal activity against adult Sitophilus zeamais assessed as mortality at 0.0625 ppm exposed for 7 days on wheat; type: functional
Cryptolestes ferrugineus [29] = assay: Insecticidal activity against adult Cryptolestes ferrugineus (rusty grain beetle) assessed as mortality at 0.075 ppm exposed for 14 days on wheat; type: functional; settings: 336 h
Sitophilus zeamais [30] = assay: Insecticidal activity against adult Sitophilus zeamais assessed as mortality at 0.0375 ppm exposed for 5 days on wheat; type: functional
Tribolium castaneum [31] = assay: Insecticidal activity against adult Tribolium castaneum (red flour beetle) assessed as mortality at 0.05 ppm exposed for 5 days on wheat; type: functional
Sitophilus zeamais [32] = assay: Insecticidal activity against adult Sitophilus zeamais assessed as mortality at 0.0875 ppm exposed for 7 days on wheat; type: functional
Sitophilus zeamais [33] = assay: Insecticidal activity against adult Sitophilus zeamais assessed as mortality at 0.0875 ppm exposed for 14 days on wheat; type: functional
Cryptolestes ferrugineus [34] = assay: Insecticidal activity against adult Cryptolestes ferrugineus (rusty grain beetle) assessed as mortality at 0.05 ppm exposed for 5 days on wheat; type: functional; settings: 120 h
Tribolium castaneum [35] = assay: Insecticidal activity against adult Tribolium castaneum (red flour beetle) assessed as mortality at 0.0875 ppm exposed for 5 days on wheat; type: functional
Cryptolestes ferrugineus [36] = assay: Insecticidal activity against adult Cryptolestes ferrugineus (rusty grain beetle) assessed as mortality at 0.0625 ppm exposed for 7 days on wheat; type: functional; settings: 168 h
Sitophilus zeamais [37] = assay: Insecticidal activity against adult Sitophilus zeamais assessed as mortality at 0.0625 ppm exposed for 5 days on wheat; type: functional
Tribolium castaneum [38] = assay: Insecticidal activity against adult Tribolium castaneum (red flour beetle) assessed as mortality at 0.0375 ppm exposed for 14 days on wheat; type: functional
Tribolium castaneum [39] = assay: Insecticidal activity against adult Tribolium castaneum (red flour beetle) assessed as mortality at 0.05 ppm exposed for 14 days on wheat; type: functional
Tribolium castaneum [40] = assay: Insecticidal activity against adult Tribolium castaneum (red flour beetle) assessed as mortality at 0.075 ppm exposed for 7 days on wheat; type: functional
Sitophilus zeamais [41] = assay: Insecticidal activity against adult Sitophilus zeamais assessed as mortality at 0.05 ppm exposed for 5 days on wheat; type: functional
Cryptolestes ferrugineus [42] = assay: Insecticidal activity against adult Cryptolestes ferrugineus (rusty grain beetle) assessed as mortality at 0.0875 ppm exposed for 7 days on wheat; type: functional; settings: 168 h
Tribolium castaneum [43] = assay: Insecticidal activity against adult Tribolium castaneum (red flour beetle) assessed as mortality at 0.0625 ppm exposed for 14 days on wheat; type: functional
Sitophilus zeamais [44] = assay: Insecticidal activity against adult Sitophilus zeamais assessed as mortality at 0.05 ppm exposed for 7 days on wheat; type: functional
Tribolium castaneum [45] = assay: Insecticidal activity against adult Tribolium castaneum (red flour beetle) assessed as mortality at 0.05 ppm exposed for 7 days on wheat; type: functional
Tribolium castaneum [46] = assay: Insecticidal activity against adult Tribolium castaneum (red flour beetle) assessed as mortality at 0.0625 ppm exposed for 5 days on wheat; type: functional
Tribolium castaneum [47] = assay: Insecticidal activity against adult Tribolium castaneum (red flour beetle) assessed as mortality at 0.0375 ppm exposed for 5 days on wheat; type: functional
Sitophilus zeamais [48] = assay: Insecticidal activity against adult Sitophilus zeamais assessed as mortality at 0.0375 ppm exposed for 14 days on wheat; type: functional

In the case of `CC(=O)O[C@H]1C[C@](C)(O)[C@]23OC(C)(C)[C@H]([C@H](OCC(C)C)[C@@H](OCc4ccccc4)[C@]2(COCC(C)C)[C@H]1OC(C)=O)[C@H]3O` [BITTERBARKOMYCIN], the Activity (Tribolium castaneum [1]) is reported as 99.6%, the mortality at 0.0375 ppm (Cryptolestes ferrugineus [2]) is reported as 64% and the Activity (Sitophilus zeamais [3]) is reported as 83.1%. It also gave a mortality at 0.0375 ppm (Cryptolestes ferrugineus [4]) of 83.8%, an Activity (Sitophilus zeamais [5]) of 92.9% and an Activity (Sitophilus zeamais [6]) of 85.3%. It also gave an Activity (Tribolium castaneum [7]) of 100%, a mortality at 0.05 ppm (Cryptolestes ferrugineus [8]) of 70.7% and a mortality at 0.0625 ppm (Cryptolestes ferrugineus [9]) of 90.3%. The mortality at 0.075 ppm (Cryptolestes ferrugineus [10]) was 98.2%, the mortality at 0.0875 ppm (Cryptolestes ferrugineus [11]) was 100% and the mortality at 0.0875 ppm (Cryptolestes ferrugineus [12]) was 92.9%. For the same molecule, the mortality at 0.0375 ppm (Cryptolestes ferrugineus [13]) was 44.7%, the Activity (Sitophilus zeamais [14]) was 86% and the Activity (Sitophilus zeamais [15]) was “Active”. It also gave an Activity (Tribolium castaneum [16]) of 48.2%, an Activity (Tribolium castaneum [17]) of 33.6% and a mortality at 0.075 ppm (Cryptolestes ferrugineus [18]) of 88.4%. The Activity (Tribolium castaneum [19]) was 68%, the Activity (Sitophilus zeamais [20]) was 73.8% and the Activity (Sitophilus zeamais [21]) was 52.4%. For the same molecule, the mortality at 0.0625 ppm (Cryptolestes ferrugineus [22]) was 53.1%, the Activity (Tribolium castaneum [23]) was 60.4% and the Activity (Tribolium castaneum [24]) was “Active”. For the same molecule, the Activity (Cryptolestes ferrugineus [25]) was “Active”, the mortality at 0.05 ppm (Cryptolestes ferrugineus [26]) was 86.7% and the Activity (Sitophilus zeamais [27]) was 80.2%. It also gave an Activity (Sitophilus zeamais [28]) of 72.2%, a mortality at 0.075 ppm (Cryptolestes ferrugineus [29]) of 100% and an Activity (Sitophilus zeamais [30]) of 39.8%. The Activity (Tribolium castaneum [31]) was 21.8%, the Activity (Sitophilus zeamais [32]) was 90.4% and the Activity (Sitophilus zeamais [33]) was 98.2%. For the same molecule, the mortality at 0.05 ppm (Cryptolestes ferrugineus [34]) was 47.6%, the Activity (Tribolium castaneum [35]) was 50% and the mortality at 0.0625 ppm (Cryptolestes ferrugineus [36]) was 76.1%. It also gave an Activity (Sitophilus zeamais [37]) of 68.4%, an Activity (Tribolium castaneum [38]) of 66% and an Activity (Tribolium castaneum [39]) of 86%. For the same molecule, the Activity (Tribolium castaneum [40]) was 63.1%, the Activity (Sitophilus zeamais [41]) was 59.1% and the mortality at 0.0875 ppm (Cryptolestes ferrugineus [42]) was 100%. It also gave an Activity (Tribolium castaneum [43]) of 95.8%, an Activity (Sitophilus zeamais [44]) of 65.1% and an Activity (Tribolium castaneum [45]) of 56.2%. For the same molecule, the Activity (Tribolium castaneum [46]) was 23.3%, the Activity (Tribolium castaneum [47]) was 19.6% and the Activity (Sitophilus zeamais [48]) was 64.4%.
